These results are taken from paper PMC10269604, “A 4-Hydroxybenzoic Acid-Mediated Signaling System Controls the Physiology and Virulence of Shigella sonnei” (Microbiology Spectrum, 2023).

One test deals with AaeR (SSON_3385). The note with it: AaeR labelled with L014 Monolith protein labeling kit; 60% LED power, 40% MST power.
Another test has as its target T1, UbiC (SSON_4219) (Shigella sonnei, UniProt Q3YUU5).
T1 construct: intact ubiC gene in pET28a(+), His-tagged fusion, expressed in E. coli BL21(DE3), His-Tag column
Briefly: in vitro conversion to 4-HBA. It is filed as biochemical. To be noted: product 4-hydroxybenzoic acid.

What is called Kd is the free concentration of one partner at which half of the binding sites on the other are occupied at equilibrium, for simple one-to-one binding. Low values mean a tighter complex, high ones a looser complex.

T1 sequence (Q3YUU5 whole entry, the tested form may be a part): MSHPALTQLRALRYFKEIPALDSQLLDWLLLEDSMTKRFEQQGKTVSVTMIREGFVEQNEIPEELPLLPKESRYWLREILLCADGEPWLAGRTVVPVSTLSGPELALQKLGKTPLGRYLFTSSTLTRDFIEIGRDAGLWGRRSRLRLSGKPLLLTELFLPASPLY

With `O=C(O)c1ccc(O)cc1` [4-hydroxybenzoic acid], binding on AaeR (SSON_3385) was put at a Kd of 23.1 ± 0.76 µM.
With `C=C(O[C@@H]1C=C(C(=O)O)C=C[C@H]1O)C(=O)O` [chorismic acid], the “in vitro conversion to 4-HBA” value on UbiC (SSON_4219) was “UbiC directly catalyzed the conversion of chorismic acid to 4-HBA”.
